EP2295560A1, “Directed evolution of arginine deiminase for increased activity at physiological pH” (priority 2009, dated 2011)

Molecular target: Pseudomonas plecoglossicida arginine deiminase (PpADI) variant M2 (K5T D44E H404R) (Pseudomonas plecoglossicida, UniProt A7LKB0, D44E/H404R/K5T)
Experiment: Determination of kcat and Km (citrulline colorimetric assay, purified enzyme)
Assay type: biochemical, Pseudomonas plecoglossicida CGMCC2039
Conditions: pH 7.4, conversion of arginine to citrulline, compared to wild type
Protocol: The kcat and Km values were determined from initial velocity data measured as a function of substrate concentration. Enzyme reaction was carried out at 37°C in a water bath. After 10 min preincubation at 37"C, the enzyme reaction was initiated by addition of purified enzyme (50 µl, 0.2-0.5 µM) to the substrate solution (200 µl, 0.2 mM to 10 mM of arginine, 0.5 M phosphate buffer, pH 7.4) in deep well plates. The reaction mixture was incubated (37°C) and every two minutes reaction mixture (30 µl) of each well was transferred to acid-ferric solution (30 µl) to stop the enzyme reaction. The color development was subsequently performed in 96-well PCR plate. Ferric-acid solution (90 µl) and DAM-TSC solution (15 µl) were added to each well. The 96-well PCR plate was then incubated (70°C, 30 min) in thermal cycler (Eppendorf Mastercyler gradient) for color development, followed by incubation in ice water to stop color development. Absorbance was measured at 530 nm using a microtiter plate reader (SPECTROstar Omega, BMG LABTECH, Offenburg, Germany). […] The kcat was calculated from the ratio of Vmax, and enzyme concentration. […]

Sequence of Pseudomonas plecoglossicida arginine deiminase (PpADI) variant M2 (K5T D44E H404R) (A7LKB0 whole entry D44E/H404R/K5T): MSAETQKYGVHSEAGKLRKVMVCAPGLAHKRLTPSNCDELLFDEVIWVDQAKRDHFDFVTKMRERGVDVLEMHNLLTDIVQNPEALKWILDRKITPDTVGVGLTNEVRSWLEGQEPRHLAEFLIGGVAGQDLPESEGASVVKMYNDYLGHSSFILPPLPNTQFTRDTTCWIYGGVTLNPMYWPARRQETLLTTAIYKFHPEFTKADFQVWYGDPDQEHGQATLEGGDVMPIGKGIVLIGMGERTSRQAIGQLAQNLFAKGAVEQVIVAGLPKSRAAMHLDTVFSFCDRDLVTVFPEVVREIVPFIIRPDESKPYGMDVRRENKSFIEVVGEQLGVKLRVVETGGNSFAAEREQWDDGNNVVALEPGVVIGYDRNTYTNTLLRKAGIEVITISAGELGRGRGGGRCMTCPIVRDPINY

## N=C(N)NCCC[C@H](N)C(=O)O [arginine]
  kcat, fold higher than wild type PpADI: 4 fold
